Experimental data as given in the NIST ThermoML archive (doi:10.1016/j.jct.2011.07.002).

Key:
[1] = mn = molality of the nth substance listed, in mol/kg; settings: 101 kPa, Liquid; for mass density: Vibrating tube method
[2] = molar heat capacity at constant pressure; mn = molality of the nth substance listed, in mol/kg; settings: 298.15 K, 101 kPa, Liquid, Flow calorimetry

Cc1cn([C@H]2CC(O)[C@@H](CO)O2)c(=O)[nH]c1=O (stereo not given in full) [thymidine] + O
[1]
Settings	mass density [kg/m3]	speed of sound [m/s]
288.15 K, m1 = 0.02897	1001.3	–
288.15 K, m1 = 0.04107	1002.22	–
288.15 K, m1 = 0.05418	1003.2	–
288.15 K, m1 = 0.06905	1004.3	–
288.15 K, m1 = 0.08071	1005.18	–
288.15 K, m1 = 0.0935	1006.13	–
288.15 K, m1 = 0.1077	1007.17	–
288.15 K, m1 = 0.122	1008.22	–
288.15 K, m1 = 0.1336	1009.07	–
298.15 K, m1 = 0.02049	998.571	1498.1
298.15 K, m1 = 0.03005	999.279	1498.8
298.15 K, m1 = 0.03798	999.866	1499.4
298.15 K, m1 = 0.04153	1000.13	1499.6
298.15 K, m1 = 0.04752	1000.57	1500
298.15 K, m1 = 0.05597	1001.19	1500.6
298.15 K, m1 = 0.06455	1001.82	1501.2
298.15 K, m1 = 0.0743	1002.53	1501.9
298.15 K, m1 = 0.08286	1003.15	1502.4
298.15 K, m1 = 0.09266	1003.86	1503.1
303.15 K, m1 = 0.02802	997.714	–
303.15 K, m1 = 0.03767	998.422	–
303.15 K, m1 = 0.04737	999.127	–
303.15 K, m1 = 0.05795	999.898	–
303.15 K, m1 = 0.06905	1000.7	–
303.15 K, m1 = 0.08175	1001.62	–
303.15 K, m1 = 0.09431	1002.52	–
303.15 K, m1 = 0.1077	1003.49	–
303.15 K, m1 = 0.1198	1004.35	–
313.15 K, m1 = 0.03767	994.944	–
313.15 K, m1 = 0.04737	995.64	–
313.15 K, m1 = 0.05795	996.397	–
313.15 K, m1 = 0.0689	997.176	–
313.15 K, m1 = 0.08175	998.094	–
313.15 K, m1 = 0.09431	998.979	–
313.15 K, m1 = 0.1079	999.926	–
313.15 K, m1 = 0.1198	1000.77	–

[2]
Settings	molar heat capacity at constant pressure [J/K/mol]
m1 = 0.02897	450.9
m1 = 0.04107	449.7
m1 = 0.05418	447.6
m1 = 0.06918	452.8
m1 = 0.08071	452
m1 = 0.0935	452.9
m1 = 0.1078	453.3
m1 = 0.122	453.8
m1 = 0.1336	455.5
